Results from US10098895B2, “Treatment of symptoms related to neurodegenerative disorders through pharmacological dermal activation of cranial nerves” (GLIA, LLC, priority 2016, dated 2018).

Experiments:
essential tremor = experiment: Example 7: essential tremor subject with contact lens discomfort; format: in vivo, human
Procedure: A person developed persistent right hand tremors of a kinetic (non-resting) type that has been continuous over the past 6 years. […] This condition had not worsened over time. […] Initially, their doctor thought that these symptoms were stress related and they have been taking 2.5 mg of escitalopram for over 6 years. […] The subject was not on hormone replacement therapy or any other medication.
Concomitantly, the subject suffered from uncomfortable eyes, with a sticky burning sensation and development of blurred vision after about 5-6 hours of contact lens wear. For the past 3 years, the subject was administered 1% progesterone gel (1 mg per day) by dermal application to the forehead once per night. The progesterone gel prolonged comfortable contact lens wear time with sustained visual acuity from 5-6 hours to greater than 15 hours. […] After 2 years of treatment, the benefits of progesterone dermal application persisted for at least 3 days without treatment. There was no effect of the progesterone on their tremor symptoms.
After allowing for washout of progesterone for 3 days, they began forehead application of 0.5-0.75 mg dronabinol once daily at night.
The dronabinol administration regimen was altered by dividing equally the once daily dose of 0.5-0.75 mg dronabinol between the conchae of the left ear, the conchae of the right ear, and the forehead. […] Comfortable contact lens wear, with ease of insertion and removal, and visual acuity extends for 15 hours or more after dronabinol application.
Contact lens comfort wear duration was greater than 15 hours.
In April 2017, the subject, while still being treated with 1% progesterone applied to the forehead, instituted a once-daily low dose topical testosterone applied to the forehead and ear conchae to determine if doing so would produce a beneficial impact on further tremor reduction and in particular essential tremor triggered by caffeine consumption. […] They stopped the treatment to assess whether the tremor would return to pre-testosterone treatment levels. As of August 2017, the subject is without noticeable tremor. The caffeine trigger for tremor onset, which had been recognized throughout all treatments, has not re-appeared since the completion of the 4-week testosterone treatment. The subject continues on low-dose progesterone 1% applied daily to the forehead as the only treatment.

[1] = tested on: Parkinson's disease symptoms; experiment: Example 1: Parkinson's disease patient, dermal application to forehead and ear conchae
Procedure: A person was diagnosed with the early stages of Parkinson's disease in December of 2014. Their symptoms included tremors in the hands, impaired short term memory, slow and uncontrolled rigid movements while walking and eating, and declining ocular blink function. The patient also had dry eyes with hyper-tearing, burning, and itching.
The patient was also treated with progesterone 1% on the forehead initially once daily beginning in March 2015. […] The progesterone was applied as needed for about a year.
Instead of the prescribed regimen, the patient began dermal application of dronabinol 1.25 mg 2 times daily to three sites: (i) the forehead, (ii) the concha of the left ear, and (iii) the concha of the right ear. Each dose of 1.25 mg was divided equally between the three application sites. This treatment regimen began Friday Jun. 10, 2016 concurrent with the discontinuation of rasagiline.
In February 2017, the patient, who suffers from debilitating moderate spinal stenosis, started taking Azilect (rasagiline) and carbidopa-levodopa to improve their walking and flexibility. […] The patient decided that, together with the prescribed medications, they would switch from dronabinol to topical testosterone gel applied to the forehead and ear conchae to see if this would impact their longstanding low testosterone levels.
In March 2017, topical testosterone gel application was instituted as an adjunct to is the prescribed Azilect and carbidopa-levodopa.
The patient voluntarily stopped topical testosterone for 3 weeks in June 2017. […] At the end of 3 weeks, topical testosterone was re-instituted as an adjunct to the prescribed medications.

[2] = tested on: Parkinson's disease symptoms; experiment: Example 2: Parkinson's disease subject, topical progesterone and testosterone; format: in vivo, human
Description: A person was diagnosed with Parkinson's disease in August of 2015. Notable symptoms include both resting and action tremor of the left hand and fingers, forearm, and, to a lesser extent, the right hand and the left leg. Handwriting and computer keyboard work were difficult. They had ocular symptoms associated with the disease, including dry eye disease with moderate to severe burning and grittiness, rapid blink rate, and partial blinking. They used artificial tears constantly in an attempt to alleviate the ocular symptoms. They had not been on any Parkinson's medications. Their Parkinson's tremor followed an “on-off” cycle that correlated with their stress levels, the “on” cycle being times with low stress and few symptoms, and the “off” cycle induced by stress showing an increase in symptoms.
In late February 2017, the subject started applying single daily doses of 0.125% testosterone to the forehead and ear conchae. By the third day of treatment, the subject was tremor-free for periods of 4-6 hours, and the “on” part of the cycle was more frequent. […] The dose of testosterone was increased to 0.2% once daily in early April.
In July 2017, testosterone application was stopped after a taper to evaluate its effects. […] On Aug. 17, 2017, they reported extreme anxiety.
That same afternoon, the subject applied 0.2% testosterone to their forehead and ear conchae, and the next day reported less anxiety and more “on” cycles. By Aug. 20, 2017, they reported having stabilized on the once daily applications with a 60% or greater increase in “on” periods. On August 28, they reported going 9 hours without tremors and leg spasms. On Aug. 30, 2017, the subject was able to walk 8 miles and exercised in between. They described themself as feeling 100%.

[3] = prescribed Azilect (rasagiline) together with carbidopa-levodopa
[4] = once-daily low dose topical testosterone to forehead and ear conchae, 4 weeks, with 1% progesterone to forehead

SMILES: CN(C)CCC[C@@]1(c2ccc(F)cc2)OCc2cc(C#N)ccc21 [escitalopram]
- tremor (essential tremor; 2.5 mg of escitalopram for over 6 years): no resolution of the tremor

SMILES: C#CCN[C@@H]1CCc2ccccc21 [Azilect, rasagiline]
- motor function [1, 3]: some motor function improvement
- tremor [1, 3]: no more improved than when they were applying dronabinol alone

SMILES: C[C@]12CC[C@H]3[C@@H](CCC4=CC(=O)CC[C@@]43C)[C@@H]1CC[C@@H]2O [testosterone]
- caffeine trigger of essential tremor (essential tremor; [4]): near complete resolution of the caffeine trigger
- reduction in tremor amplitude and frequency over the original baseline (essential tremor; [4]): ≤ 90%
- overall functioning after resumption ([1]; testosterone resumed after a three week hiatus): returned immediately to the improved levels
- mental stability, reported by wife ([1]; testosterone to forehead and ears, one-year period up to August 2017): very positive impact on their mental stability
- adverse events ([1]; throughout low dose neural cranial treatment): no adverse events were noted
- cognitive and non-motor symptoms ([1]; topical testosterone gel to forehead and ear conchae, adjunct to Azilect and carbidopa-levodopa, by the third day): improvement in cognitive and non-motor symptoms
- cognitive and emotional function after stopping treatment ([1]; topical testosterone stopped for 3 weeks, within 3 days): significant decline in cognitive and emotional function
- tremor-free days ([2]; 0.125% testosterone once daily, mid-March): two full days tremor-free
- tremor amplitude and resolution ([2]; 0.125% testosterone single daily doses to forehead and ear conchae): the amplitude was less, and the tremors resolved sooner
- tremor-free periods ([2]; 0.125% testosterone single daily doses to forehead and ear conchae, by the third day): 4 to 6 h
- time without tremors and leg spasms ([2]; 0.2% testosterone once daily, August 28): 9 h
- increase in 'on' periods ([2]; 0.2% testosterone once daily, by Aug. 20, 2017): ≥ 60%
- anxiety ([2]; 0.2% testosterone re-applied to forehead and ear conchae, next day): less anxiety
- symptom trend after stopping treatment ([2]; 6 weeks of testosterone abstinence): downward trend in symptoms to pre-treatment levels
- blood total and free testosterone ([2]; July 2017, after topical testosterone 0.125-0.2% once daily): mildly elevated total and free testosterone
- tremors after stopping treatment ([2]; day 3 of testosterone abstinence): tremors were more frequent
- stress management, mood, libido ([2]; testosterone 0.2% once daily, through April 2017): improved stress management, elevated mood with increase in libido and vaginal lubrication
- disease progression, assessed by neurologists ([2]; testosterone administration, no prescribed Parkinson's medications): no disease progression
- negative side effects ([2]; topical testosterone, February to July 2017): No negative side effects
